The test system of the experiment is BDF1 mice, P388 leukemia ip, median survival T/C. Briefly: NCI In Vivo Anticancer Drug Screen. Data for tumor model P388 Leukemia (intraperitoneal) in B6D2F1 (BDF1) mice. The conditions noted are these: endpoint: median survival time, higher = longer survival. The gist of the method: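 Reported as T/C, where T is the survival measurement in dosed animals and C the same measurement in vehicle controls.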

[1] abbreviates: dose: 25.0 mg/kg/injection, schedule: Q04DX003 (ip), vehicle: saline.
The mark [2] stands for this setting: dose: 50.0 mg/kg/injection, schedule: Q01DX009 (ip), vehicle: saline.
Where [3] appears, read: dose: 50.0 mg/kg/injection, schedule: Q04DX003 (ip), vehicle: saline.
[4] abbreviates: dose: 100.0 mg/kg/injection, schedule: Q01DX009 (ip), vehicle: saline with Tween-80.
[5] abbreviates: dose: 200.0 mg/kg/injection, schedule: Q01DX009 (ip), vehicle: saline with Tween-80.

Values joined by “and” are separate entries in the source; they are usually repeats but may differ in a detail not shown here. Equal values may be shown once. Toxic doses and inconclusive results are not listed.

Consider ten compounds from PubChem BioAssay AID328 (DTP/NCI, 2004).

For the compound `C/C=C1\C[N+]2(C)CCC34c5ccccc5NC32C(O)CC1C4(CO)C(=O)OC` (stereo not drawn), the T/C is 98 % of control (dose: 2.0 mg/kg/injection, schedule: Q01DX009 (ip), vehicle: saline with Tween-80); 93 % of control (dose: 4.0 mg/kg/injection, schedule: Q01DX009 (ip), vehicle: saline with Tween-80); 94 % of control (dose: 8.0 mg/kg/injection, schedule: Q01DX009 (ip), vehicle: saline with Tween-80).

On to `CC(C)(C)C([NH-])=O.CC(C)(C)C([NH-])=O.[Cl][Pt+2][Cl]`, for which the T/C is 88 % of control (dose: 3.12 mg/kg/injection, schedule: Q01DX009 (ip), vehicle: saline); 92 % of control (dose: 6.25 mg/kg/injection, schedule: Q01DX009 (ip), vehicle: saline); 108 % of control (dose: 12.5 mg/kg/injection, schedule: Q01DX009 (ip), vehicle: saline); 105 % of control (dose: 12.5 mg/kg/injection, schedule: Q04DX003 (ip), vehicle: saline); 92 % of control (dose: 25.0 mg/kg/injection, schedule: Q01DX009 (ip), vehicle: saline); 107 % of control under setting [1]. In addition, the T/C is, setting by setting: under setting [2], 94 % of control; under setting [3], 98 % of control.

Regarding `O=C(N/N=C/c1cccc(S(=O)(=O)O)c1)c1ccncc1`, the T/C is 97 % of control under setting [4]; 86 % of control under setting [5]; 94 % of control (dose: 400.0 mg/kg/injection, schedule: Q01DX009 (ip), vehicle: saline with Tween-80).

For the compound `COc1cc2cc3c4cc5c(cc4cc[n+]3c(C)c2cc1OC)OCO5` (tested in a mixture with another compound), the T/C (dose: 1.46 mg/kg/injection, schedule: Q04DX003 (ip), vehicle: saline) was 117 % of control; the T/C (dose: 16.5 mg/kg/injection, schedule: Q04DX003 (ip), vehicle: saline) is 150 % of control; the T/C under setting [1] is 156 % of control and 159 % of control; the T/C (dose: 44.0 mg/kg/injection, schedule: Q04DX003 (ip), vehicle: saline) was 168 % of control; the T/C under setting [3] was 160 % of control; the T/C (dose: 66.0 mg/kg/injection, schedule: Q04DX003 (ip), vehicle: saline) is 177 % of control. Further, the T/C (dose: 100.0 mg/kg/injection, schedule: Q04DX003 (ip), vehicle: saline) was 163 % of control and 182 % of control.

For `CC(=O)OC(=O)C(Cc1ccccc1)NC(=O)C(N)CCCN=C(N)N` (stereo not drawn), the T/C was 98 % of control (dose: 50.0 mg/kg/injection, schedule: Q01DX005 (ip), vehicle: saline with Tween-80) and 103 % of control (dose: 100.0 mg/kg/injection, schedule: Q01DX005 (ip), vehicle: saline with Tween-80).

As for `CCN(CC)CC(C)Nc1ccc([N+](=O)[O-])c2sc3ccccc3c(=O)c12` (stereo not drawn), the T/C (dose: 100.0 mg/kg/injection, schedule: Q04DX003 (ip), vehicle: saline with Tween-80) was 200 % of control; the T/C (dose: 132.0 mg/kg/injection, schedule: Q04DX003 (ip), vehicle: saline with Tween-80) was 209 % of control and 222 % of control; the T/C (dose: 200.0 mg/kg/injection, schedule: Q04DX003 (ip), vehicle: saline with Tween-80) was 272 % of control and 300 % of control and 195 % of control; the T/C (dose: 300.0 mg/kg/injection, schedule: Q04DX003 (ip), vehicle: saline with Tween-80) is 109 % of control and 118 % of control; the T/C (dose: 400.0 mg/kg/injection, schedule: Q04DX003 (ip), vehicle: saline with Tween-80) was 115 % of control.

For the compound `ClCC1CCN(CCc2ccccc2)CC1`, the T/C by setting is: under setting [2], 95 % of control; (dose: 100.0 mg/kg/injection, schedule: Q01DX009 (ip), vehicle: saline) 99 % of control.

For the compound `COCCCn1c(C(Cl)(Cl)Cl)nn2c(=O)c3ccccc3nc2c1=O`, the T/C was 87 % of control under setting [4] and 90 % of control under setting [5].

Regarding `CCOC(=O)/C(N=O)=C(\O)c1ccc2ccccc2n1`, the T/C (dose: 3.12 mg/kg/injection, schedule: Q01DX009 (ip), vehicle: water) was 106 % of control; the T/C (dose: 6.25 mg/kg/injection, schedule: Q01DX009 (ip), vehicle: water) was 98 % of control and 99 % of control and 103 % of control; the T/C (dose: 12.5 mg/kg/injection, schedule: Q01DX009 (ip), vehicle: water) was 111 % of control and 123 % of control; the T/C (dose: 25.0 mg/kg/injection, schedule: Q01DX009 (ip), vehicle: water) is 94 % of control and 104 % of control and 106 % of control; the T/C (dose: 25.0 mg/kg/injection, schedule: Q04DX003 (ip), vehicle: water) is 97 % of control; the T/C (dose: 50.0 mg/kg/injection, schedule: Q01DX009 (ip), vehicle: water) is 100 % of control and 103 % of control. The T/C (dose: 50.0 mg/kg/injection, schedule: Q04DX003 (ip), vehicle: water) was 120 % of control; the T/C (dose: 100.0 mg/kg/injection, schedule: Q01DX009 (ip), vehicle: water) is 99 % of control; the T/C (dose: 100.0 mg/kg/injection, schedule: Q04DX003 (ip), vehicle: water) was 105 % of control; the T/C (dose: 200.0 mg/kg/injection, schedule: Q01DX009 (ip), vehicle: water) was 91 % of control; the T/C (dose: 200.0 mg/kg/injection, schedule: Q04DX003 (ip), vehicle: water) was 97 % of control; the T/C (dose: 400.0 mg/kg/injection, schedule: Q01DX009 (ip), vehicle: water) was 110 % of control. The T/C (dose: 400.0 mg/kg/injection, schedule: Q04DX003 (ip), vehicle: water) was 92 % of control.

On to `CCCC[N+](CCCC)(CCCC)CCCC.Cc1ccc([SH2+])c([SH2+])c1.Cc1ccc([SH2+])c([SH2+])c1.[Fe+3]`, for which the T/C is, setting by setting: (dose: 45.0 mg/kg/injection, schedule: Q04DX003 (ip), vehicle: Klucel (hydroxypropylcellulose) (HPC)) 109 % of control; (dose: 65.0 mg/kg/injection, schedule: Q04DX003 (ip), vehicle: Klucel (hydroxypropylcellulose) (HPC)) 118 % of control; (dose: 100.0 mg/kg/injection, schedule: Q01DX001 (ip), vehicle: other) 112 % of control; (dose: 150.0 mg/kg/injection, schedule: Q04DX003 (ip), vehicle: Klucel (hydroxypropylcellulose) (HPC)) 118 % of control; (dose: 200.0 mg/kg/injection, schedule: Q01DX001 (ip), vehicle: other) 112 % of control; (dose: 200.0 mg/kg/injection, schedule: Q04DX003 (ip), vehicle: Klucel (hydroxypropylcellulose) (HPC)) 90 % of control and 120 % of control. Besides, the T/C was 108 % of control (dose: 400.0 mg/kg/injection, schedule: Q01DX001 (ip), vehicle: other) and 120 % of control (dose: 400.0 mg/kg/injection, schedule: Q04DX003 (ip), vehicle: Klucel (hydroxypropylcellulose) (HPC)).
